Experimental data reported in US20170326199A1, “USE OF CASPASE-2 INHIBITORS TO TREAT AND PREVENT THE METABOLIC SYNDROME” (Duke University, priority 2015, published 2017).

How the values were obtained:
[1] = test system: 3T3-L1 cells differentiated in adipocytes; test: Palmitate-induced lipoapoptosis (caspase 3/7 activity, ApoTox-Glo Triplex Assay) in 3T3-L1 adipocytes; assay type: cell-based; conditions: palmitate 1 mM, 48 hours, inhibitor 20 uM, FIG. 4G
Procedure: FIG. 4G. […] Left panel: apoptosis (caspase 3/7 activity) in adipocytes treated with Palmitate 1 mM, 48 hour±caspase-2 inhibitor, VDVAD-FMK 20 uM.
3T3-L1 cells were differentiated in adipocytes as previously described (Zebisch et al., 2012), and differentiation confirmed with Oil red staining. Adipocytes were treated with palmitate 1 mM with or without caspase-2 inhibitor Z-VDVAD-FMK (R&D Systems), 20 uM, for 48 hours. Apoptosis was measured using ApoTox-Glo Triplex Assay (Promega).

[2] = test system: human caspases (including caspase-2); conditions: broad-spectrum (pan-caspase) inhibitor; cited from earlier work
[3] = test system: other classes of proteases or other enzymes or receptors other than caspases; conditions: selectivity; cited from earlier work
caspase-2 = molecular target: T1, caspase-2 (Homo sapiens, UniProt P42575); conditions: cell-permeable peptide; cited from earlier work
T1 sequence (P42575 1-452): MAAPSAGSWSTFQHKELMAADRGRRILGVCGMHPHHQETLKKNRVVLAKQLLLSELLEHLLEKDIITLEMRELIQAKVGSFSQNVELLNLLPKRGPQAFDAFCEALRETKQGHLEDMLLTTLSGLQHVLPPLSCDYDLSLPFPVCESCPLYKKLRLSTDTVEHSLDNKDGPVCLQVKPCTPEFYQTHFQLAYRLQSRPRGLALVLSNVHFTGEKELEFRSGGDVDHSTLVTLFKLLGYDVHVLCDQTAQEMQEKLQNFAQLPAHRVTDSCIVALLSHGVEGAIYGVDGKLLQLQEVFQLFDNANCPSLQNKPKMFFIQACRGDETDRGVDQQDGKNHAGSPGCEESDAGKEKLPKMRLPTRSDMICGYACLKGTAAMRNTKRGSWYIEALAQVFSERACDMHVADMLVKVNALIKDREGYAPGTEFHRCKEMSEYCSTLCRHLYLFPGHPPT

Z-VDVAD-FMK
effect on palmitate-induced lipoapoptosis in adipocytes [1]: prevented

C[C@H](NC(=O)C(=O)Nc1ccccc1C(C)(C)C)C(=O)N[C@@H](CC(=O)O)C(=O)COc1c(F)c(F)cc(F)c1F [IDN-6556]
activity against caspases [2]: activity against all tested human caspases (including caspase-2) | inhibition of non-caspase proteases, enzymes or receptors [3]: no inhibition

VDVAD [available as a fluoromethylketone derivative]
inhibition of caspase-2 activity (caspase-2): irreversibly inhibits
